The text below walks through data of the NIST ThermoML archive (doi:10.1021/je901065e).

The conditions of this data set: 298.15 K; 101.33 kPa; Liquid.

± gives the expanded uncertainty stated by the source.

For `CCCC[n+]1ccccc1C.F[B-](F)(F)F` [1-butyl-2-methylpyridinium tetrafluoroborate], the mass density was determined as 1202.5 ± 1 kg/m3.

As for `CCCC[n+]1ccc(C)cc1.F[B-](F)(F)F` [1-butyl-4-methylpyridinium tetrafluoroborate], the mass density was found to be 1183.1 ± 0.9 kg/m3.

As to `CCCC[n+]1ccccc1.F[B-](F)(F)F` [1-butylpyridinium tetrafluoroborate], the mass density was found to be 1214 ± 1 kg/m3.

In the case of `CCCCCC[n+]1ccccc1.F[B-](F)(F)F` [1-hexylpyridinium tetrafluoroborate], the mass density is given as 1154.8 ± 0.8 kg/m3.

Regarding `c1ccccc1` [benzene], the mass density stood at 873.4 ± 0.5 kg/m3.

For `Cc1ccccc1` [toluene], the mass density is on record as 862.27 ± 0.53 kg/m3.
